Measured values: patent US8486974B2 (priority 2007, dated 2013)

Assays:
[1] = Hydrolysis and aspirin release in buffered human plasma solution (HPLC); settings: for aspirin production / aspirin produced: 50% human plasma
[2] = target: T1, purified human serum BuChE (Homo sapiens, UniProt P06276); assay: Hydrolysis by purified human serum butyrylcholinesterase; type: in vitro ADME; settings: Purified human serum (0.15 mg/ml); conc drug 0.12 mM
T1 construct: Purified human serum butyrylcholinesterase (EC 3.1.1.8); purchased Sigma-Aldrich; host or cells: human serum
T1 sequence (P06276 29-602): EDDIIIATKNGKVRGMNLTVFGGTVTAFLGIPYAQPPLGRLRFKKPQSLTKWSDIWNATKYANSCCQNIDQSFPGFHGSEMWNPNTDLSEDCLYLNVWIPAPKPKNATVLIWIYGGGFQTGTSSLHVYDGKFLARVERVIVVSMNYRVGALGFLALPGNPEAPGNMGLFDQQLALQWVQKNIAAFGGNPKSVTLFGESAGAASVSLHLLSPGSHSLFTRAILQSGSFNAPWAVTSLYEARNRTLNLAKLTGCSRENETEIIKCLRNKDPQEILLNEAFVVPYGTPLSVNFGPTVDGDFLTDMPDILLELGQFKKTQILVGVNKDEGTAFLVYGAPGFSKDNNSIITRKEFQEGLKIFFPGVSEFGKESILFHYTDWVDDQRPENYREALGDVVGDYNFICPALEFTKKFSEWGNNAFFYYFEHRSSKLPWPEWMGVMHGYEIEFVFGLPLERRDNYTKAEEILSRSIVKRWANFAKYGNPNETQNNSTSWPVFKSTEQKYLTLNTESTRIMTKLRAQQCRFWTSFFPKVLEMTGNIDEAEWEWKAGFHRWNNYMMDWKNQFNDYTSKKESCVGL
Method: Pooled plasma/serum solutions (4 ml) were prepared to the correct strength by dilution of plasma with phosphate buffer pH 7.4 (e.g. for a 10% solution 0.4 ml of plasma/serum was added to 3.6 ml of phosphate buffer pH 7.4). Following equilibration of the plasma/serum sample at 37±0.5° C. 100 μl of a stock solution of test compound in acetonitrile (1×10^−4 M) was added and 250 μl aliquots were removed at specified time intervals. Samples were transferred to 1.5 ml Eppendorf tubes containing 500 μl of a 2% w/v solution of nSO4.7H2O (water:acetonitrile, 1:1). Tubes were vortexed for 2 minutes, then centrifuged at 10,000 rpm for 3 minutes at room temperature. Supernatant was aspirated off and analysed by HPLC. The concentration of test compound and metabolites were determined with reference to calibration curves run on that day in the same concentration range and under the same experimental conditions. In order to mimic conditions during the first passage of the drugs after intestinal absorption selected compounds were incubated in phosphate buffer at 37° C. in the presence of microsomes from human liver (HLM) and intestinal epithelium (HIM). The metabolic fate of the esters under these conditions was also determined by RPHPLC by measuring the concentration of drug and metabolites in the medium as a function of time. The identity of participating enzymes was confirmed by using purified enzyme in the case of plasma (BuChE) and by repeating the hydrolysis experiments in the presence of esterase specific inhibitors—isoOMPA for BuChE and BNPP for carboxylesterase. The BuChE activity of plasma and microsomal samples was determined using the Ellman assay (Ellman et al., 1964).

[3] = test system: ADP-induced platelet aggregation; assay: ADP-induced platelet aggregation in PRP; type: cell-based, human
Method: (§1) Blood was collected from healthy volunteers who had not taken any drugs known to affect platelet function for at least 14 days prior to the study. Platelet rich plasma (PRP) and washed platelet suspensions (2.5×10^8 platelets/ml) were prepared from blood as previously described.
(§2) Platelet aggregation was measured by light aggregometry as previously described. Briefly, PRP and washed platelet samples (2.5×10^8/ml) were placed in a whole blood ionized calcium lumi-aggregometer (Chronolog Corp., Havertown, Pa., U.S.A), and (BIO/DATA CORPORATION) and incubated for 10 min at 37° C., with stirring at 900 r.p.m., prior to the addition of aggregating agents. Aggregation was initiated by the addition of agonists, and monitored by Aggro-Link software for at least 6 min. For experiments using inhibitors, aggregation was initiated after 10 min preincubation with these compounds
(§3) Collagen at different concentrations (3-5 ug/ml) was also used to induce platelet aggregation. The submaximal concentrations of agonists, i.e. the concentrations that gave approximately 95% of the maximal aggregation were used to study the effects of inhibitors of aggregation. Results were expressed in percent changes in maximal light transmission, with 100% representing light transmission of platelet medium alone.

[4] = test system: collagen-induced human platelet aggregation; assay: Collagen-induced human platelet aggregation in vitro; type: cell-based
Method: as §1, §2, §3

[5] = cited from earlier work
[6] = human, 2.4 µM, pH 7.4
[7] = target: horse plasma butyrylcholinesterase (Equus caballus, UniProt P81908); settings: cited from earlier work
horse plasma butyrylcholinesterase, sequence (P81908 whole entry): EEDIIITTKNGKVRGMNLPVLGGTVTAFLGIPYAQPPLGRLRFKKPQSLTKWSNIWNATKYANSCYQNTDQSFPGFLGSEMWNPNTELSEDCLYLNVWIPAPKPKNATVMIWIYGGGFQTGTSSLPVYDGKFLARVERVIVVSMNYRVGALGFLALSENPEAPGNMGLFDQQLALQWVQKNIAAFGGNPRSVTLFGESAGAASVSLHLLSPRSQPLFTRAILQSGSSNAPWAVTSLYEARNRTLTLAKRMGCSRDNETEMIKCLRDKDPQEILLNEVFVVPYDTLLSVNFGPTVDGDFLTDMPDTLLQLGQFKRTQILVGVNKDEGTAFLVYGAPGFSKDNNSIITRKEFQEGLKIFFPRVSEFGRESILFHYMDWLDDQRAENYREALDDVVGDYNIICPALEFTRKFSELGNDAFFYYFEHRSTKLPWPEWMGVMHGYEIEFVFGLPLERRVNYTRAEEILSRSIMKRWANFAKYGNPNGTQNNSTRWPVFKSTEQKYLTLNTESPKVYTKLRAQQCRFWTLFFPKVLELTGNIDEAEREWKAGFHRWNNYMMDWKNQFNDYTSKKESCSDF

[8] = test system: platelet aggregation in human whole blood; assay: Whole blood aggregation studies (impedance method); type: cell-based; settings: Homo sapiens, Platelet; arachidonic acid; impedance method; read-out: IC50, platelet aggregation towards arachidonic acid in human whole blood
Method: A 500 μl aliquot of blood was mixed with 500 μl of physiological saline and allowed to incubate at 37° C. for 10 mins in the incubation well of a Chrono-Log Whole Blood Aggregometer model 591/592. The sample was then transferred to the assay well, baseline was established and appropriate volume of reagent as above was added. Aggregation was monitored over 6 mins with impedance output recorded on a chart recorder. When testing inhibitors whole blood was pre-incubated with appropriate concentrations of inhibitor in DMSO at 37° C. for a specified length of time before adding the stimulant (10 mins with stirring). Three different aggregating agents, AA (0.5 mM), ADP (10 μM) and Collagen (5 μg/ml) were used. […] DMSO in high concentrations (above 0.25%) can induce a concentration dependent change in platelet cytoplasmic ionised calcium. Before each experiment a control was run using PRP to obtain normal aggregating responses. A sample was also incubated for 10 min at 37° C. with 10 μl DMSO to ensure it was having no inhibitory effect on the aggregation response.

[9] = test system: GPIIb/IIIa; assay: Flow cytometry of activated GPIIb/IIIa (PAC-1) on platelets; type: cell-based, human
Method: In order to analyze receptor expression on the surface of individual platelets and to minimize platelet activation caused by sample preparation procedures, no stirring or vortexing steps were used. The abundance of activated GPIIb/IIIa and P-selectin on the surface of platelets in the presence and absence of inhibitors was measured by flow cytometry. Platelet samples were first activated with agonists either collagen or ADP. When platelet aggregation reached 50% maximal light transmission the reaction was terminated by 10-fold dilution with physiologic saline. Resting platelets were used as control. In most of the experiments, platelets were preincubated with inhibitors for 10 min prior to the addition of agonists. Platelet samples were then incubated in the dark without stirring for 5 min at room temperature in the presence of saturating concentrations (10 μg/ml) of P-selectin (CD62P-APC). The activated GPIIb/IIIa platelet receptors were measured using PAC-1 monoclonal antibody at the same concentration as above. PAC-1 specifically recognizes an epitope on the high-affinity GPIIb/IIIa complex of activated platelets at or near the […]. Following incubation, samples were diluted in FACS Flow fluid and analyzed within 5 min using a BD FACSArray (BD Biosciences, Oxford, UK). Flow cytometry was performed on single stained platelet samples as described before^3. The instrument was set up to measure the size (forward scatter), granularity (side scatter) and cell fluorescence. A two-dimensional analysis gate of forward and side scatter was drawn in order to include single platelets and exclude platelet aggregates and microparticles. Antibody binding was measured by analyzing individual platelets for fluorescence. The mean fluorescence intensity was determined after correction for cell autofluorescence. For each sample, the fluorescence was analyzed using a logarithmic scale. Fluorescence histograms were obtained for 10,000 individual events. Data were analyzed using Cytometer RXP software and expressed as a percentage of control fluorescence in arbitrary units.

[10] = in vivo; cited from earlier work
[11] = test system: human platelet aggregation to arachidonic acid; assay: Human platelet aggregation to arachidonic acid in platelet rich plasma; type: cell-based; settings: Homo sapiens, platelet rich plasma
Method: as §1, §2

[12] = phosphate buffered human plasma solutions (Gilmer et al., 2002)

## CC(=O)Oc1ccccc1C(=O)O[C@H]1CO[C@H]2[C@@H]1OC[C@H]2O [Compound 17, Isosorbide-2-aspirinate-5-OH, reference compound]
[1]; 10% human plasma, pH 7.4, 37° C., peak aspirin as percentage of initial ester concentration in moles
  molar % aspirin released in 10% human plasma: 2.95%
[1]; 10% human plasma, phosphate buffer pH 7.4, 37° C.
  Half-life in 10% human plasma: 4.08 min
[1]; human plasma
  acts as aspirin prodrug in human plasma: is not an aspirin prodrug
[1]; human plasma, listed as 2-aspirinate
  acts as aspirin prodrug in human plasma: None of these acted as aspirin prodrugs

## CC(=O)Oc1ccccc1C(=O)O[C@@H]1CO[C@H]2[C@@H]1OC[C@@H]2O [Compound 5-aspirinate, isosorbide-5-aspirinate, reference compound]
[1]; human plasma
  acts as aspirin prodrug in human plasma: None of these acted as aspirin prodrugs

## Isosorbide-2-aspirinate-5-(3-nitrooxy-methyl)benzoate [Compound 32]
[2]
  Aspirin: 15 µM
  Drug disappearace: 10 min
  Salicylic acid: 6 µM
[1]; 50% HP, conc drug 0.25 mM
  Aspirin: 26 µM
  Salicylic acid: 18 µM
[1]
  aspirin production: 26 µM
[1]; drug 2.5×10^−4 M
  aspirin produced: 26 µM
[1]; 80% HP, conc drug 0.1 mM
  Salicylic acid: 9 µM

## Isosorbide-2-aspirinate-5-(p-cyanobenzoate) [Compound 20]
[3]
  potency relative to aspirin, inhibition of ADP-induced platelet aggregation: more potent inhibitor
[4]
  potency relative to aspirin, inhibition of collagen-induced human platelet aggregation: more potent than aspirin

## Isosorbide-2-aspirinate-5-(2-nitrooxy-methyl)benzoate [Compound 31]
[1]
  aspirin production: 10.3 µM
[1]; drug 1×10^−4 M
  aspirin produced: 10.3 µM

## CC(=O)Oc1ccccc1C(=O)O[C@H]1CO[C@H]2[C@@H]1OC[C@H]2OC(=O)c1ccccc1OC(C)=O [Compound 16, Isosorbide-di-aspirinate]
[5]; [12]
  aspirin produced in phosphate buffered human plasma solutions: approximately 60%
  hydrolysed along the unproductive salicylate pathway: 40%
[6]
  hydrolysis along unproductive salicylate pathway: 40%
[7]
  aspirin generated: 11%

## Isosorbide-2-aspirinate-5-(4-nitrooxy-methyl) benzoate [Compound 33]
[1]
  aspirin production: 2 µM
[1]; drug 1×10^−4 M
  aspirin produced: 2 µM

## Isosorbide-2-aspirinate-5-[2-methylbenzoate] [Compound 1]
[1]; human plasma
  aspirin release (hydrolysis along the aspirin pathway) in human plasma: around 60%

## CC(=O)Oc1ccccc1C(=O)O [aspirin]
[8]
  IC50: 25 µM
[9]; concentrations at which aspirin has no effect
  constitutive platelet glyco-protein expression: has no effect
[9]; same concentration like ISAS (2) or nitrate compounds 31-32
  inhibition of platelets activation: failed to inhibit platelets activation
[10]
  half-life in the body: 20 min
[11]
  IC50: 5 µM
[5]; dilute plasma
  half-life in dilute plasma: around one
